Here are results for 5 compounds from ChEMBL document CHEMBL1201862, “PubChem BioAssay data set” (2004).

Each structure is given as a SMILES string. Activity calls are given as the source filed them.

The target in test [1] is T1, Heat shock factor protein 1 (Mus musculus, UniProt P38532).
T1 sequence (P38532 whole entry): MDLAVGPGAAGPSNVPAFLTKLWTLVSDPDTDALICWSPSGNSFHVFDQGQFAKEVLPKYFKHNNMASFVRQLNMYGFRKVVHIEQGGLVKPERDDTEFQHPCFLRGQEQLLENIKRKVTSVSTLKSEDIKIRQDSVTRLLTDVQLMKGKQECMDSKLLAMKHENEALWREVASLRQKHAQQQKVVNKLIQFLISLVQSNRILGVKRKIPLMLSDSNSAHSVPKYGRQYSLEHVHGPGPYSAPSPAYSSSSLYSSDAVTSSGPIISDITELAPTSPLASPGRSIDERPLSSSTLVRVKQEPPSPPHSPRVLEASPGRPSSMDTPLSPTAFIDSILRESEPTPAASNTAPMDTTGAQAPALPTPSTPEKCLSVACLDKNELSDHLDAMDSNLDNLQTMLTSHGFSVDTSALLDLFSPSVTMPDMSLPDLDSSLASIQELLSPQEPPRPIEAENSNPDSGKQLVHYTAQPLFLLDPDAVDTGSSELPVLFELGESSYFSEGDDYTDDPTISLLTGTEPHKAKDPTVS
Description: inhibition of MG132-induced HSE-luciferase signal, confirmation, cell-based, NIH3T3, luminescence, dose retest (AID 2382).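 Note: NIH3T3 fibroblasts with HSF1-driven luciferase reporter stressed by proteasome inhibitor MG132; luminescence from HSF1-driven luciferase expression after 8 hours of MG132 stress.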 Type of test: functional.

Test [2] has as its target Delta-type opioid receptor (Homo sapiens, UniProt P41143). Description: Counterscreen for agonists of heterodimerization of the mu 1 (OPRM1) and delta 1 (OPRD1) opioid receptors: Luminescence-based cell-based high throughput dose response assay to identify agonists of OPRD1 homodimerization. [Related pubchem assays (depositor defined):AID504326, AID504355, AID504692, AID504904, AID504905]. Type of test: functional. A general note: The purpose of a counterscreen is to sort out artefacts and off-target activity.

The target in the next test is Mu-type opioid receptor (Homo sapiens, UniProt P35372). Description: Counterscreen for agonists of heterodimerization of the mu 1 (OPRM1) and delta 1 (OPRD1) opioid receptors: Luminescence-based cell-based high throughput dose response assay to identify agonists of OPRM1 homodimerization. In kind it is functional.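 Note: U2OS cells expressing OPRM1 and beta-arrestin as split beta-galactosidase partners.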
Mu-type opioid receptor, sequence (P35372 whole entry): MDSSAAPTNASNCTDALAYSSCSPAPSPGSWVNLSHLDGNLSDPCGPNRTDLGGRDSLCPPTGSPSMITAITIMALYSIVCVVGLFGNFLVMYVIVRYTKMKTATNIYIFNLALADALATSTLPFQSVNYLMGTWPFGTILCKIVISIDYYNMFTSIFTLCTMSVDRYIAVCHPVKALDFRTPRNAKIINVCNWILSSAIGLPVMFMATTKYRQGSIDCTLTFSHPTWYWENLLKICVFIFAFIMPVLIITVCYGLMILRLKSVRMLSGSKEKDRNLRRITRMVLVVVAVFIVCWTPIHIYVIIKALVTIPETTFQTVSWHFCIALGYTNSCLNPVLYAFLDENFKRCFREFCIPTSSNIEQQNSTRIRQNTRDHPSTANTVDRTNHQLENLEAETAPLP
The target of test [3] is 5-hydroxytryptamine receptor 5A (Homo sapiens, UniProt P47898). Nature of the test: Counterscreen for agonists of OPRM1-OPRD1 heterodimerization: luminescence-based cell-based high throughput dose response assay to identify agonists of 5-hydroxytryptamine (serotonin) 5A receptor (HTR5A). [Related pubchem assays (depositor defined):AID504326, AID504355, AID504692, AID504904, AID504905]. In kind it is functional.
5-hydroxytryptamine receptor 5A, sequence (P47898 whole entry): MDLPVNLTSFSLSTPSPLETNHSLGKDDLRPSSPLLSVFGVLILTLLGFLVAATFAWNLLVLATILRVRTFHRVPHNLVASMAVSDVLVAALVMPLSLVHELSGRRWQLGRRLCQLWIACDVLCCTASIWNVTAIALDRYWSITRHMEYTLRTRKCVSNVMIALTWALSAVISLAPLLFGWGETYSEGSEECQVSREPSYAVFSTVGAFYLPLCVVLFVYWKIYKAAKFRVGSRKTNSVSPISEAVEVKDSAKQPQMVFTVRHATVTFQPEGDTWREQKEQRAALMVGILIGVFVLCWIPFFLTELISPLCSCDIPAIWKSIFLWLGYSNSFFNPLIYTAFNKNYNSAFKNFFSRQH

Test [4] addresses T2, RNA-binding protein pos-1 (Caenorhabditis elegans, UniProt G5EF15).
T2 sequence (G5EF15 whole entry): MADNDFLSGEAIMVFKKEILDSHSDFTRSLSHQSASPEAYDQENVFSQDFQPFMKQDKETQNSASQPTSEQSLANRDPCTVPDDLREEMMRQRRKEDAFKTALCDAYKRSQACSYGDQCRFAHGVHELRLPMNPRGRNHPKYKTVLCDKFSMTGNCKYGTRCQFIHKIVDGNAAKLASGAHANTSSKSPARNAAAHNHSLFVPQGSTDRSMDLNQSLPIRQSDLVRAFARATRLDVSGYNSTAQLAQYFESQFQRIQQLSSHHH
Nature of the test: inhibitors of POS-1/mex-3 RNA binding, dose response, biochemical, fluorescence polarization (AID 1964).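 Note: purified POS-1 fused to maltose binding protein made in E. coli; potency of compounds blocking POS-1 binding to fluorescent RNA.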 On the technique in general: Fluorescence polarisation rises when a labelled molecule tumbles more slowly, as on binding a larger partner.

In test [5] the target is T3, Zinc finger protein mex-5 (Caenorhabditis elegans, UniProt Q9XUB2).
T3 sequence (Q9XUB2 whole entry): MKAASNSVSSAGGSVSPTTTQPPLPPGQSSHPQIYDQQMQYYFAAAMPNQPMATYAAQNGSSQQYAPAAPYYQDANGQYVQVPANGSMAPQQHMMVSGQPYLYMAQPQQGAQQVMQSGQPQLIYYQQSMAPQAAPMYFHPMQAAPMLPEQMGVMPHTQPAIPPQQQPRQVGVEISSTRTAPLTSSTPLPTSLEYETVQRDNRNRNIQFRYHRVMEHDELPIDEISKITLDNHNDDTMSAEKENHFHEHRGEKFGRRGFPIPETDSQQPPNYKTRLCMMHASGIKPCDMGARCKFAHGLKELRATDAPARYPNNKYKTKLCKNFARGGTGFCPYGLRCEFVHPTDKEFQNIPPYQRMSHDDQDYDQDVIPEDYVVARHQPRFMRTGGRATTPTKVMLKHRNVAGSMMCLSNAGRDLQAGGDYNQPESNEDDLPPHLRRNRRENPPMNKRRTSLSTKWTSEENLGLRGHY
Description: MEX-5/TCR-2 RNA interaction inhibitors, dose response, biochemical, C. elegans, fluorescence polarization (AID 1960).

Test [6] deals with T4, Ubiquitin-conjugating enzyme E2 N (Homo sapiens, UniProt P61088).
T4 sequence (P61088 whole entry): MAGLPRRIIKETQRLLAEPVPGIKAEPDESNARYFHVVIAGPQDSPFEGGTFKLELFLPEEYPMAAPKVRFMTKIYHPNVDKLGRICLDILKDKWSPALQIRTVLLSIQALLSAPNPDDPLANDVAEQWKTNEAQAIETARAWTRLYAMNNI
Type of test: functional.

The target in another test is Beta-galactosidase (Escherichia coli, UniProt Q8VNN2). Description: beta-galactosidase enzyme inhibitors and activators, dose response, artefact control for CCR6 antagonist project, biochemical, E. coli enzyme, set 3 (AID 504712). Type of test: functional.
Beta-galactosidase, sequence (Q8VNN2 whole entry): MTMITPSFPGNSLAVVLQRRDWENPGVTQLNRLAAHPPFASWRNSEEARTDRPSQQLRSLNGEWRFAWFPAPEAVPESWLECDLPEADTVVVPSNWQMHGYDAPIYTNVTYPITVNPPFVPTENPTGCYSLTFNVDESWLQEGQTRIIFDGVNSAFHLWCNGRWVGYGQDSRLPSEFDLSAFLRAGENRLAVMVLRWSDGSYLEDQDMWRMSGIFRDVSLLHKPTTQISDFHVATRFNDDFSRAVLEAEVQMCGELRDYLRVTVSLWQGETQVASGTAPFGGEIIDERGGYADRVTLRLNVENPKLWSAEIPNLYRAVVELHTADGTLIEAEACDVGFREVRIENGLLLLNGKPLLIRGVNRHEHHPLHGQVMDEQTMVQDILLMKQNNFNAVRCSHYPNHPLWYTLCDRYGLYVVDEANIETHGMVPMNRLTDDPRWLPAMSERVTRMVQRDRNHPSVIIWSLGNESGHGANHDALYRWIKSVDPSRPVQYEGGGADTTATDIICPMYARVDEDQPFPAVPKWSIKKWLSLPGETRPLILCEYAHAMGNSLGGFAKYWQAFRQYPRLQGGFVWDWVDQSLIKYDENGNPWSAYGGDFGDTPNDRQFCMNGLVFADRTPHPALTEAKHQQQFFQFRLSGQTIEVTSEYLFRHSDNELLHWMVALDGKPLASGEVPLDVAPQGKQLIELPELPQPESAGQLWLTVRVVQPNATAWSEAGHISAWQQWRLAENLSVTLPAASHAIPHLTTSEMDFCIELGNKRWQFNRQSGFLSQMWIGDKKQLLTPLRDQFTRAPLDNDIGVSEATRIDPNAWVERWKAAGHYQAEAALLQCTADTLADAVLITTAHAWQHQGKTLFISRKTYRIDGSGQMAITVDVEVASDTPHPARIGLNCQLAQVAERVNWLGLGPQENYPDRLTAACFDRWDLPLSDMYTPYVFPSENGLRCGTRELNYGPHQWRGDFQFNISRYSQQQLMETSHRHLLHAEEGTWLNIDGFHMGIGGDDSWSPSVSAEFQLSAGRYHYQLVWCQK
For test [7], the target named is T5, Short transient receptor potential channel 4 (Mus musculus, UniProt Q9QUQ5).
T5 sequence (Q9QUQ5 whole entry): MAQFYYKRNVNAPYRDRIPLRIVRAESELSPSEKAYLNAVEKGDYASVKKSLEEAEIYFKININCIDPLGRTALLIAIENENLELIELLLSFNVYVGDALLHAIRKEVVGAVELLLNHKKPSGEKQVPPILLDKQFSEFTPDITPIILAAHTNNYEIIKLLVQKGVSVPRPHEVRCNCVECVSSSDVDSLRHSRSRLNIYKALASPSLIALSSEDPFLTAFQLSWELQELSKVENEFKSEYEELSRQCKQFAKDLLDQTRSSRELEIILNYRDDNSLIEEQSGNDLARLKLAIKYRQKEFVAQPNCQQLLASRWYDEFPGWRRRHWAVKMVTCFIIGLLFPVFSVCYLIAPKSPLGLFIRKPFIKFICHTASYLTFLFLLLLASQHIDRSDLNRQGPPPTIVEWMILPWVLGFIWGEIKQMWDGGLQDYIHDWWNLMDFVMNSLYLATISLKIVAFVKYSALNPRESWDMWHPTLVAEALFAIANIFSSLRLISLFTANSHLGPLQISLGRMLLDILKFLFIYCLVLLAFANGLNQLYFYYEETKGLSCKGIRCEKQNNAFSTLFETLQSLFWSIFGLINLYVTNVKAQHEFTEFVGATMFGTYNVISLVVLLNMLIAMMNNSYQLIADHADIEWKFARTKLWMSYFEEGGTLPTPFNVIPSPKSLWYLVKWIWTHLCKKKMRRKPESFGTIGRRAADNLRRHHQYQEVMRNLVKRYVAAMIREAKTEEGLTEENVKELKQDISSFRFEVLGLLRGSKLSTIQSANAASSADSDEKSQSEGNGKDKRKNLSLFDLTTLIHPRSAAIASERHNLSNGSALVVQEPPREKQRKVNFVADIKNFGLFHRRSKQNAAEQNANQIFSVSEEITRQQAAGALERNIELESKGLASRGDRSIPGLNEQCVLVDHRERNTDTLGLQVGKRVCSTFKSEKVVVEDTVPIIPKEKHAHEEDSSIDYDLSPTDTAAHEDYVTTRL
Description: mouse TRPC4 channel activators, dose response, cell-based, HEK293 TRPC4/mu-opioid, Fluo-4 calcium (AID 434937). In kind it is functional.

For another test, the target named is Apelin receptor (Homo sapiens, UniProt P35414). Nature of the test: APJ beta-arrestin recruitment antagonism, SAR follow-up, selectivity assay for CCR6 antagonist project, cell-based, luminescent, enzyme-fragment complementation (AID 588359). Type of test: functional. On the technique in general: Recruitment of arrestin is a read-out of receptor activation apart from second messengers.
Apelin receptor, sequence (P35414 whole entry, the tested form may be a part): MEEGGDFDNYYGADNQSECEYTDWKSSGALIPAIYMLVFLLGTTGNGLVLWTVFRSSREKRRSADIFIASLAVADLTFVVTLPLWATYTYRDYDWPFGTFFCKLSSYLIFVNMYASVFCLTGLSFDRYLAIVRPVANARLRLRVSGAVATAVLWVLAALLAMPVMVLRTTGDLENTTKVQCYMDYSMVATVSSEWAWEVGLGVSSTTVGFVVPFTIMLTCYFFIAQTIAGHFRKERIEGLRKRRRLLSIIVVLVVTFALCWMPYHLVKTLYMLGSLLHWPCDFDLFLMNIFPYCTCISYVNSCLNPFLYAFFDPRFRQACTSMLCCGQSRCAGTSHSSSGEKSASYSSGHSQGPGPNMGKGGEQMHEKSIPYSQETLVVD

Test [8] deals with T6, Acyl-homoserine lactone acylase PvdQ (Pseudomonas aeruginosa (strain LESB58), UniProt Q9I194).
T6 sequence (Q9I194 whole entry): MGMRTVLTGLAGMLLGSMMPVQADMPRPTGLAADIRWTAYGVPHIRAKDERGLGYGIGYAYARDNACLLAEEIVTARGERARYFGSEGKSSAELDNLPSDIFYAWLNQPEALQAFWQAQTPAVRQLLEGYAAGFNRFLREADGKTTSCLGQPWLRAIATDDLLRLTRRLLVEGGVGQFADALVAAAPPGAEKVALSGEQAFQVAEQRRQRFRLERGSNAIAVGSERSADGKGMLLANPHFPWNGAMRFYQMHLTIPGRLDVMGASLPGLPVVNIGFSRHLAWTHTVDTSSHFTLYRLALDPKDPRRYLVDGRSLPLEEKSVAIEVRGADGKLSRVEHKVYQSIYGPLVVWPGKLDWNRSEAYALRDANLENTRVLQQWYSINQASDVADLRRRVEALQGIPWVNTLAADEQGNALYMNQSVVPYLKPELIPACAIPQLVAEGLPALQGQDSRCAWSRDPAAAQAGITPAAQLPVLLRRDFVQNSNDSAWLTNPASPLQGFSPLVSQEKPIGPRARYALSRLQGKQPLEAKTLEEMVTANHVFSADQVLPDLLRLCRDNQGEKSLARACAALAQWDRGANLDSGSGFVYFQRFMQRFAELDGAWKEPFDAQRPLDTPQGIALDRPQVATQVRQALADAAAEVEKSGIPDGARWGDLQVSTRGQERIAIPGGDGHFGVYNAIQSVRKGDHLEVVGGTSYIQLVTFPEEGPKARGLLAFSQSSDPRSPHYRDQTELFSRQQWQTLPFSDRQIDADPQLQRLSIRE
Description: P. aeruginosa PvdQ acylase inhibitors, dose response, biochemical, fluorescence, plate reader and imaging, cherry-picks (AID 493231).

In another test the test system is HEK293. Nature of the test: cells. Type of test: functional, cell-based. To be noted: Homo sapiens.
The target of test [9] is Nuclear receptor subfamily 0 group B member 1 (Homo sapiens, UniProt P51843). Nature of the test: Luminescence-based cell-based high throughput dose response assay for inhibitors of the orphan nuclear receptor subfamily 0, group B, member 1 (DAX1; NR0B1). [Related pubchem assays (depositor defined):AID504766, AID504790]. In kind it is functional.
Nuclear receptor subfamily 0 group B member 1, sequence (P51843 whole entry): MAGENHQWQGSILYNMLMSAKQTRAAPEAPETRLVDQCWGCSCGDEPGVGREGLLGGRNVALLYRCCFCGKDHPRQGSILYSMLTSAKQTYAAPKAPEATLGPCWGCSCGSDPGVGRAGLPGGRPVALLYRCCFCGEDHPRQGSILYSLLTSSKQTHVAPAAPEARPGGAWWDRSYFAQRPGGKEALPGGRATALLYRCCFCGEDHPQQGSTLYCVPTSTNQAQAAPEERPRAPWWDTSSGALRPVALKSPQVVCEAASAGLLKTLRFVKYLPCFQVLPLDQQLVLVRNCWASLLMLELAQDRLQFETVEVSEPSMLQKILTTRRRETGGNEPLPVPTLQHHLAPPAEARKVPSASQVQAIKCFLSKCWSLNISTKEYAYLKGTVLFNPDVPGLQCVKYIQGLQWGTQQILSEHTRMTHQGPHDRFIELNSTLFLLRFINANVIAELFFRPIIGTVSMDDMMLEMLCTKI
The target in test [10] is T7, Rac GTPase-activating protein 1 (Homo sapiens, UniProt Q9H0H5).
T7 sequence (Q9H0H5 whole entry): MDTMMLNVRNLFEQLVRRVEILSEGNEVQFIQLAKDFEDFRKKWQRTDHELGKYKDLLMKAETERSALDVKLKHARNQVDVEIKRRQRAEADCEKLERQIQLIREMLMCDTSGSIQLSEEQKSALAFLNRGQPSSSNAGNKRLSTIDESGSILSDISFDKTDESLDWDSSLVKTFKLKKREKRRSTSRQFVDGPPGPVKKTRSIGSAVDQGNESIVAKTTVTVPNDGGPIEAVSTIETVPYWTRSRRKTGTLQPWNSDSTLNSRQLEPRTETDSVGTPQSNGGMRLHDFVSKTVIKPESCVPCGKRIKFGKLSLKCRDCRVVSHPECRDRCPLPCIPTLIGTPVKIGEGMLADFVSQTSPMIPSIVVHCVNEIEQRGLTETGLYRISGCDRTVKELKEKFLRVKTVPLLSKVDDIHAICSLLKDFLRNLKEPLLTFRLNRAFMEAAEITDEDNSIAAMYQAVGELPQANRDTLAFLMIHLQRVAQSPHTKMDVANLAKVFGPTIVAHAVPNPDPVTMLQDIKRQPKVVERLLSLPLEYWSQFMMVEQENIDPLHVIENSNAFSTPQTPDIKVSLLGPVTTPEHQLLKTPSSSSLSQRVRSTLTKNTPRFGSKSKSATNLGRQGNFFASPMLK
Description: MgcRacGAP GTPase-activating activity inhibitors, confirmation, biochemical, ADP Hunter fluorescence, primary and confirmatory (AID 624330). Type of test: functional.

Test [11] deals with Luciferin 4-monooxygenase (Photinus pyralis, UniProt P08659). Description: firefly luciferase enzyme inhibitors, dose response, biochemical, luminescence (AID 1891).
Luciferin 4-monooxygenase, sequence (P08659 whole entry): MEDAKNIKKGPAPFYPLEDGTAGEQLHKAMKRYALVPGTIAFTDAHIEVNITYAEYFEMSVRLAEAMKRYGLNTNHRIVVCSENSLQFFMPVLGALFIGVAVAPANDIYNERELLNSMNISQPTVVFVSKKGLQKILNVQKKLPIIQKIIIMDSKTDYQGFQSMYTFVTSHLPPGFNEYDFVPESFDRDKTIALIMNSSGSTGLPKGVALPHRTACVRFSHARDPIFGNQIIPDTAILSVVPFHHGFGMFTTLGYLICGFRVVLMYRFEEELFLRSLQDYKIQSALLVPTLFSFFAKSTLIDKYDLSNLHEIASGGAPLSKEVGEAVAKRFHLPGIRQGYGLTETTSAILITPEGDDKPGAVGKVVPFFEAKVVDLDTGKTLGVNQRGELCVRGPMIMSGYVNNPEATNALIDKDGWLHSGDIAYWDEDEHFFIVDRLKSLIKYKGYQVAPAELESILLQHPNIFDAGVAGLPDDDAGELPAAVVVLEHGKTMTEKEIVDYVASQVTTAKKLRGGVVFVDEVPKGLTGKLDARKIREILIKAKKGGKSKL
The nature of test [12]: Luminescence Cell-Based Dose Confirmation HTS to Identify Inhibitors of Platelet Dense Granule Release. [Related pubchem assays: 1663 (Primary HTS), 1678 (Summary of Project)]. Type of test: functional.
A further test concerns HeLa. Nature of the test: HeLa cell cytotoxicity, dose response, cytotoxicity control for MITF activator project, CellTiter-Glo luminescence, cherry-pick samples (AID 540259). In kind it is functional, cell-based. The note with it: Homo sapiens.
In another test the test system is Escherichia coli. Description: microbe, parasite or virus in culture.

Delta-type opioid receptor, sequence (P41143 whole entry): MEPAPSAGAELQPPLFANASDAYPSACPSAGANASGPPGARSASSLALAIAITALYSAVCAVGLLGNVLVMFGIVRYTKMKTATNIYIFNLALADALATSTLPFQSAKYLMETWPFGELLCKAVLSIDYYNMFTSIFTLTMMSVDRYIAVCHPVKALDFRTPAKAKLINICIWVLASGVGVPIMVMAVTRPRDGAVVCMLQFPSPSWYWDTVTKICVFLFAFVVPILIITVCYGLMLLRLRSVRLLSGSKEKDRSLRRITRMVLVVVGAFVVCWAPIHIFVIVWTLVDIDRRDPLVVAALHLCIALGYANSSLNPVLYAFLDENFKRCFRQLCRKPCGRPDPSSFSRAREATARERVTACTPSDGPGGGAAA

For the compound `COc1ccc(/C=C/C(=O)NC(=S)NCCc2ccc(OC)c(OC)c2)cc1`, the EC50 was 13.6 µM (active) in test [1], > 92.5 µM (inactive) in [2], > 92.5 µM (inactive) at Mu-type opioid receptor and > 92.5 µM (inactive) in [3].

As to `COCCCn1c(N)c(-c2nc3ccccc3n2C)c2nc3ccccc3nc21`, the EC50 in test [4] was 40.4 µM (active); in test [5], 40.6 µM (active); in [7], 2.66 µM (active); in test [2], > 92.5 µM (inactive); at Mu-type opioid receptor, > 92.5 µM (inactive); in [3] it was > 92.5 µM (inactive). The IC50 in test [6] was > 20 µM (inactive); on Beta-galactosidase, > 66.6 µM (inactive); on Apelin receptor, 19.3 µM (active).

Turning to `CCOc1ccc(CNC2CCCc3ccccc32)cc1` (centres undefined), the concentration at half-maximal activity (AC50) in [8] was 12.3 µM (active). The values for the IC50 (with HEK293; in [9]; in [10]) were > 67.5 µM (inactive), > 67.5 µM (inactive) and 202 µM (active), respectively.

`O=C(COc1ccc(Cl)cc1Cl)c1ccc[nH]1`: the IC50 (with HEK293; in test [9]) was > 67.6 µM (inactive) each time.

Regarding `COc1ccc(/C=N/Nc2ccccn2)cc1O`, the figures for the EC50 in [11] and in [12] were 17.6 µM (active) and 12.5 µM (active), respectively. The AC50 in the test on HeLa is 282 µM (active); in the test on Escherichia coli, 31.1 µM (active). Further, in test [10], the IC50 is 70.2 µM (active).

For orientation: EC50 means the concentration that produces a half-maximal response. A word on the IC50: it is the concentration at which inhibition is half-maximal. As usually defined, the AC50 is the concentration giving half of the maximal activity seen.
